Laboratory results: patent publication EP1201248A2, “Combination therapy of angiotensin converting enzyme inhibitor, side-effect reduced amount of aldosterone antagonist and diuretic for treatment of cardiovascular disease” (priority 1995, dated 1996)

Key:
[1] = spironolactone 100 mg/day coadministered with an ACE inhibitor; congestive heart failure; cited from earlier work
[2] = cited from earlier work
[3] = Human clinical trial of ACE inhibitor, spironolactone and loop diuretic: clinical laboratory values and neurohormones
[4] = Human clinical trial of ACE inhibitor, spironolactone and loop diuretic: weight, vital signs and cardiac assessments; assay type: in vivo, humans; settings: for Supine diastolic BP, Mean Change from Baseline to Week 12 / Supine pulse, Mean Change from Baseline to Week 12 / Supine systolic BP, Mean Change from Baseline to Week 12 / Weight, Mean Change from Baseline to Week 12: with stable ACE inhibitor and loop diuretic, spread in parentheses
Text: Concurrent medication within the past 30 days. • 2. 12-lead ECG • 3. […] Signs and symptoms within the past 30 days.
All statistical methods were two-sided.

[5] = spironolactone 50 mg/day to 100 mg/day (average 73 mg/day) and captopril; 90-patient study; cited from earlier work
[6] = Human clinical trial of ACE inhibitor, spironolactone and loop diuretic: adverse events, hyperkalemia incidence, hospitalizations, deaths; settings: patients previously at the 50 mg dose

## CC(=O)S[C@@H]1CC2=CC(=O)CC[C@]2(C)[C@H]2CC[C@@]3(C)[C@@H](CC[C@@]34CCC(=O)O4)[C@H]12 [Spironolactone, 17-hydroxy-7a-mercapto-3-oxo-17a-pregn-4-ene-21-carboxylic acid γ-lactone acetate]
[1]
  patients in whom treatment was highly effective: 13 of 16
[2]; cohort treated with spironolactone sub-cutaneously, side-by-side with a captopril cohort
  fibrosis in hypertensive rats: found to prevent fibrosis in the hypertensive-rat cohort
[2]; irrespective of left ventricular hypertrophy and hypertension
  fibrosis in animal models: shown to prevent fibrosis in animal models
[3]; Day 9, Week 4 and Week 12 (P ≤0.001)
  PRA, change from baseline, dose-response: greater increases in PRA
[3]; Week 12 (p = 0.002)
  Urinary aldosterone excretion, change from baseline, dose response: Greater increases were seen at higher doses
[3]; all active treatments, all treatment visits
  N-Terminal Atrial Natriuretic Factor (ANF), change from baseline: decreases from baseline at all treatment visits
[3]; all treatment period visits (p <0.001)
  serum potassium, change from baseline, dose-response: larger increases in potassium
[4]; 25 mg, 50 mg and 75 mg groups, all visits, standing and supine
  mean systolic and diastolic blood pressure, change: decreases in mean systolic and diastolic blood pressure
[4]; 75 mg dose group, Day 9 and Week 4, not observed at later visits
  body weight, change from baseline: more weight loss than other patients
[4]; Day 9 (p = 0.019), not seen at later visits (p >0.20)
  sodium retention score, dose response: higher doses showing more reduction in sodium retention score
[4]; Week 8 (p = 0.004), compared to the placebo group, not observed at Week 12
  changes in loop diuretic therapy: more patients on the higher doses of spironolactone had decreases in the loop diuretic dose
[4]; spironolactone 25 mg/d
  Supine diastolic BP, Mean Change from Baseline to Week 12: -2.74 ( 9.57)
  Supine pulse, Mean Change from Baseline to Week 12: -1.40(10.00) BPM
  Supine systolic BP, Mean Change from Baseline to Week 12: -4.46(13.97)
  Weight, Mean Change from Baseline to Week 12: -0.16 (3.02)
[4]; spironolactone 50 mg/d
  Supine diastolic BP, Mean Change from Baseline to Week 12: -5.11(11.11)
  Supine pulse, Mean Change from Baseline to Week 12: -3.21(11.27) BPM
  Supine systolic BP, Mean Change from Baseline to Week 12: -7.04(15.83)
  Weight, Mean Change from Baseline to Week 12: 0.62 (2.05)
[4]; spironolactone 75 mg/d
  Supine diastolic BP, Mean Change from Baseline to Week 12: -5.91 (9.05)
  Supine pulse, Mean Change from Baseline to Week 12: -1.07(13.79) BPM
  Supine systolic BP, Mean Change from Baseline to Week 12: -5.68(15.62)
  Weight, Mean Change from Baseline to Week 12: -0.81 (2.70)
[4]; spironolactone groups vs placebo group
  NYHA Class, improvement: the difference was not statistically significant
[5]
  control of refractory CHF: effective to control refractory CHF without serious incidents of hyperkalemia
[6]
  deaths within 30 days after the study was completed: Three patients died
